Consider six compounds from ChEMBL document CHEMBL3397027, “Design, synthesis and evaluation of chromone-2-carboxamido-alkylbenzylamines as multifunctional agents for the treatment of Alzheimer's disease” (Bioorg Med Chem, 2015).

Series [1] in a line: Metal chelating activity of the compound assessed as formation of iron-compound complex in methanol solution at 37.5 uM after 30 mins by UV-vis spectrometry. The class given is physicochemical. The conditions noted are these: 0.5 h.
Series [2] concerns the target Acetylcholinesterase (Electrophorus electricus) (UniProt O42275). The series can be described thus: Mixed-type inhibition of electric eel AChE using acetylthiocholine iodide as substrate at 0.0625 to 0.25 uM after 15 mins by Lineweaver-Burk plot method.
Series [3] in a line: Inhibition of rat serum BuChE using butyrylthiocholine iodide as substrate after 15 mins by Ellman method. The class given is cell-free. For orientation: In Ellman's method for cholinesterases, released thiocholine reacts with DTNB.
Series [4] concerns the target Acetylcholinesterase (Electrophorus electricus, UniProt O42275). Nature of the series: Inhibition of electric eel AChE using acetylthiocholine iodide as substrate after 15 mins by Ellman method. The conditions noted are these: read-out: IC50.
Series [5] in a line: Antioxidant activity assessed as AAPH scavenging activity measured as trolox equivalent at 5 uM after 15 mins by ORAC-FL method relative to control. Type of series: physicochemical. The following applies: 0.25 h.
Series [6] has as its target Amyloid-beta precursor protein (Homo sapiens) (UniProt P05067). Nature of the series: Inhibition of Cu2+-mediated aggregation of amyloid beta (1-42) (unknown origin) at 25 uM after 24 hrs by thioflavin T fluorescence-based fluorimetric method.
The species entered for series [7] is Rattus norvegicus. The series can be described thus: Selectivity index, ratio of IC50 for rat serum BuChE to IC50 for AChE from rat cortex homogenate. Type of series: cell-free.
Series [8] in a line: Metal chelating activity of the compound assessed as formation of aluminium-compound complex in methanol solution at 37.5 uM after 30 mins by UV-vis spectrometry. Type of series: physicochemical. The conditions noted are these: 0.5 h.
Series [9] in a line: Metal chelating activity of the compound assessed as formation of copper-compound complex in methanol solution at 37.5 uM after 30 mins by UV-vis spectrometry. Type of series: physicochemical. The conditions noted are these: 0.5 h.
Series [10] concerns the target T1, Acetylcholinesterase (Rattus norvegicus, UniProt P37136).
T1 sequence (P37136 whole entry): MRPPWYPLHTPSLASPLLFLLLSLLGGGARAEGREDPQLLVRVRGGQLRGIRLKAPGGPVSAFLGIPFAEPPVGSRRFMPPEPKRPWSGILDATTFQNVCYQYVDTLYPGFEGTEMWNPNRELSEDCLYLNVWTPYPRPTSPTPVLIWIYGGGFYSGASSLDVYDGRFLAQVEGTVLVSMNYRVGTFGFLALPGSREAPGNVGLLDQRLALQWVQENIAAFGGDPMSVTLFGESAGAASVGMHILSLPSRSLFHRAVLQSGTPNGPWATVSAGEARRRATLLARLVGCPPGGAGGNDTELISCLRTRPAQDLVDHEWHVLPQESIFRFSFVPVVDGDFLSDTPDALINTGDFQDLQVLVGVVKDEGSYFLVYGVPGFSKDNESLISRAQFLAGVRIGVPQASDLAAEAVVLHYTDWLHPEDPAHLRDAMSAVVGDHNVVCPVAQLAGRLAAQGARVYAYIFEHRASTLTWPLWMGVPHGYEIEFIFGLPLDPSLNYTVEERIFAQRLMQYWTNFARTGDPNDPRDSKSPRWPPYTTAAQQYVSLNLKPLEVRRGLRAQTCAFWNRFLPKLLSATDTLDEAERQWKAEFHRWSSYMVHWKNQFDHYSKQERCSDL
Nature of the series: Inhibition of AChE from rat cortex homogenate using acetylthiocholine iodide as substrate after 15 mins by Ellman method.

A short description of series [11]: Metal chelating activity of the compound assessed as formation of zinc-compound complex in methanol solution at 37.5 uM after 30 mins by UV-vis spectrometry. The class given is physicochemical. The following applies: 0.5 h.
For series [12], the target named is Amyloid-beta precursor protein (Homo sapiens) (UniProt P05067). The series can be described thus: Inhibition of self-mediated aggregation of amyloid beta (1-42) (unknown origin) at 25 uM after 24 hrs by thioflavin T fluorescence-based fluorimetric method.
Amyloid-beta precursor protein (Homo sapiens), sequence (P05067 whole entry): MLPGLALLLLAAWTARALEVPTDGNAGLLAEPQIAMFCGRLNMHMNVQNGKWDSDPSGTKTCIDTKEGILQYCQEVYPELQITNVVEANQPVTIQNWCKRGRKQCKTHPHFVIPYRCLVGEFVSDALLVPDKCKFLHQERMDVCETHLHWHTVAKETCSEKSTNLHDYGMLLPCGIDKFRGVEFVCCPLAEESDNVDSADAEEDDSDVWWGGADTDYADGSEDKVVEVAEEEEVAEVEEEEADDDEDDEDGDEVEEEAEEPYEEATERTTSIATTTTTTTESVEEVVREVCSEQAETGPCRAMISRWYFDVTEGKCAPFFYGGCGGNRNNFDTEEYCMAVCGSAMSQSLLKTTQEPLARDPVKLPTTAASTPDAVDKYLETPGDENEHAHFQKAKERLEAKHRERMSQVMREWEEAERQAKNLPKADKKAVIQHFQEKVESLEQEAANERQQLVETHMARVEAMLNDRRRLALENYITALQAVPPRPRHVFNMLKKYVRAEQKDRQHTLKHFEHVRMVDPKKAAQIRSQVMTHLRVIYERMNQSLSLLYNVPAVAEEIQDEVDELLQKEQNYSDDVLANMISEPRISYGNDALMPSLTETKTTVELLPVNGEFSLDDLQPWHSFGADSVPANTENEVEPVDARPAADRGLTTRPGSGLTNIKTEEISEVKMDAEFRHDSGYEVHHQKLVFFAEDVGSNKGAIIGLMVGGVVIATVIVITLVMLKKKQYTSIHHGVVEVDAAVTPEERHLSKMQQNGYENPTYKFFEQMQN

By inhibition is commonly meant how much of the control response was suppressed. The pIC50 is the IC50 on a negative log10 scale, so that one unit is a factor of ten.

Molecules are shown by their SMILES. pIC50: −log10 of the molar value. Active and inactive are the calls of the source. The rule behind the calls is not given here.

Acetylcholinesterase (Electrophorus electricus, UniProt O42275), sequence (O42275 whole entry): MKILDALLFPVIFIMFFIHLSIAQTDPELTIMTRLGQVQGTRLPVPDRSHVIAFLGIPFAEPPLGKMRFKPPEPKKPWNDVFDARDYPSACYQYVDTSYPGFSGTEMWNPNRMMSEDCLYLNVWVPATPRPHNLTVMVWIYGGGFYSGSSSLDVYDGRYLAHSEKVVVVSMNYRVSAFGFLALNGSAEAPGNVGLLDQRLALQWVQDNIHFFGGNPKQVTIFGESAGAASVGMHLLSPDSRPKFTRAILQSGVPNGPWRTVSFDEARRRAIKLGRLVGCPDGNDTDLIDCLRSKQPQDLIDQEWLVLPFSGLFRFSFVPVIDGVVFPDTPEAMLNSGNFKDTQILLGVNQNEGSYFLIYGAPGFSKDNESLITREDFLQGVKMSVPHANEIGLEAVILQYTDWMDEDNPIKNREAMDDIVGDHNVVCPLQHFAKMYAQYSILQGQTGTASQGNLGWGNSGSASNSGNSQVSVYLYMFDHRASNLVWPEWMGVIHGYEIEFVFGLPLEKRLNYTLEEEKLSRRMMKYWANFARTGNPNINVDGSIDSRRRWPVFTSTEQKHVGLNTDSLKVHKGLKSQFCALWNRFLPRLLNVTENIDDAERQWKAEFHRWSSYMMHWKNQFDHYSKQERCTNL
Acetylcholinesterase (Electrophorus electricus), sequence (O42275 24-633 limits assumed): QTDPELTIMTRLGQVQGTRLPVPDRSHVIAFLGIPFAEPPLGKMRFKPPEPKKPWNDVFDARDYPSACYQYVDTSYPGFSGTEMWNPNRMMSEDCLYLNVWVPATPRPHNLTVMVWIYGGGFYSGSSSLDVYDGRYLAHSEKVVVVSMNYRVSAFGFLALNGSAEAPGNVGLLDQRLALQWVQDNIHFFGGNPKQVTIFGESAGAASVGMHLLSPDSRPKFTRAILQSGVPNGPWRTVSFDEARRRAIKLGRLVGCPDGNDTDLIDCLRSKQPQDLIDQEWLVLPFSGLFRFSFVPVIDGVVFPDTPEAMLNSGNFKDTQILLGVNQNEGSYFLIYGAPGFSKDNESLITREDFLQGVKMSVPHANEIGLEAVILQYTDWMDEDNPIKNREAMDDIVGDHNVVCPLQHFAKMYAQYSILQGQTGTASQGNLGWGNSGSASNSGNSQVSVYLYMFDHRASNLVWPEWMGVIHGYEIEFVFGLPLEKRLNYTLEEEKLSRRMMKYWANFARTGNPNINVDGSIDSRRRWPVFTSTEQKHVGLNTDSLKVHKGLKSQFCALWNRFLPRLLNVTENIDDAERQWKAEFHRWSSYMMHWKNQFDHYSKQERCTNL

With `CCN(CCCCNC(=O)c1cc(=O)c2c(O)cccc2o1)Cc1ccccc1OC`, the Activity result was “Not Active” in series [1], “Not Active” in series [8], “Active” in series [9] and “Not Active” in [11]. Also, the inhibition entry in series [2] is “Active”. Further, the pIC50 was 4.29 in series [3], 6.26 in [4] and 7.15 in series [10]. Moreover, the “fold change (FC)” value in [5] came to 0.83. Further, the inhibition in series [6] is 48.3%; in series [12] it was 59.2%. Besides, the Ratio IC50 in series [7] stood at 736.
As for `CN(CCCNC(=O)c1cc(=O)c2c(O)cccc2o1)Cc1ccccc1`, the values for the pIC50 in series [3], in series [4] and in [10] were 3.92, 4.61 and 4.71, respectively. In addition, the “fold change (FC)” value in [5] is given as 0.85. For the same compound, the inhibition in series [6] turned out to be 25.8%; in [12], 43.9%. Besides, in [7], the Ratio IC50 worked out at 6.1.
For the compound `COc1cc(O)c2c(=O)cc(C(=O)NCCCCN(C)Cc3ccccc3)oc2c1`, the pIC50 was 3.87 in [3], 5.23 in series [4] and 5.12 in [10]. Besides, the “fold change (FC)” value in series [5] is 0.79. Besides, the inhibition stood at 35.3% in series [6] and 24.4% in [12]. For the same compound, in [7], the Ratio IC50 came out at 17.9.
For the compound `COc1ccccc1CN(C)CCCCNC(=O)c1cc(=O)c2c(O)cccc2o1`, the pIC50 in [3] was 4.26; in [4], 5.48; in series [10], 5.86. The “fold change (FC)” value in [5] is on record as 0.81. Moreover, the inhibition in series [6] is 24.1%; in [12], 49.3%. In addition, the Ratio IC50 in series [7] was found to be 40.1.
As to `CCN(CCCCNC(=O)c1cc(=O)c2c(O)cc(O)cc2o1)Cc1ccccc1OC`, the pIC50 in series [3] was 3.85; in series [4] it was 4.44; in series [10], 5.95. In series [5], the “fold change (FC)” value was found to be 2.3. Further, the inhibition is 32.1% in series [6] and 37.8% in series [12]. For the same compound, in series [7], the Ratio IC50 was found to be 127.
Consider `CCN(CCCCNC(=O)c1cc(=O)c2c(O)cc(OC)cc2o1)Cc1ccccc1N(C)C`, for which the pIC50 is 4.13 in [3], 6.04 in series [4] and 6.51 in series [10]. In addition, the “fold change (FC)” value in series [5] is listed as 0.97. For the same compound, the values for the inhibition in series [6] and in series [12] were 20% and 25.6%, respectively. In addition, the Ratio IC50 in [7] came out at 239.
